These results are taken from US20220313678A1 (priority 2021, published 2022).

Where two headings read alike, the source gives them in different places.

The conditions of series [1]: 1:1 v:v, about 25° C., about 24 hours.
Method: Each of Samples 1-8 is prepared by and measured according to the following method. Liquid nicotine is added at the target nicotine concentration to a vessel containing an oil phase. The oil phase containing nicotine is mixed with an aqueous phase at a one-to-one volume ratio (v:v) using an orbital shaker at about 100 rotations per minute (rpm) for about 5 minutes to prepare a nicotine oil: aqueous phase mix. The nicotine oil: aqueous phase mix is allowed to sit at room temperature (about 25° C.) for about 24 hours. A concentration of nicotine in each of the oil phase and the nicotine phase is measured using a liquid chromatography method. A partition coefficient, which is a ratio concentrations of a compound (i.e., nicotine) in two immiscible solvents (i.e., an oil phase and an aqueous phase) at equilibrium, is calculated for each sample. The partition coefficient is a comparison of the solubilities of the nicotine in the two liquid phases.
Samples 1-6 include MCT oil (CAS No. 73398-61-5) as an oil phase. Sample 7 includes triacetin oil as an oil phase. Sample 8 includes triolein oil as an oil phase. Sample 1 includes deionized (DI) water as an aqueous phase. Sample 2 includes basified DI water having a pH of 7.4 as an aqueous phase. Sample 3 includes artificial saliva having a pH of 6.8 as an aqueous phase. Artificial saliva simulates mucus conditions. […]
The conditions of series [2]: free base (non-protonated); cited from earlier work.

`CN1CCCC1c1cccnc1` (stereo not drawn) [nicotine, 3-(1-methyl-2-pyrrolidinyl) pyridine]: the “partition coefficient (oil phase : aqueous phase)” value is “greater than 1” in series [1] (Samples 1-4: MCT oil vs DI water, basified DI water pH 7.4, artificial saliva pH 6.8, acidified DI water pH 2) and “less than 1” in series [1] (Samples 5-8: MCT, triacetin or triolein oil vs 1M acetic acid pH adjuster pH 2). Moreover, in series [2], the pKa value entry is listed as “about 8”.
